Results: patent US20170218375A1, “MORPHOLINOS, MORPHOLINO UPREGULATING, AND ASSOCIATED METHODS” (University of Utah Research Foundation, priority 2011, published 2017)
{Dendrimer} = dendrimer conjugate (vivo-morpholino)

Columns and labels:
Type in all cases: in vivo
sVEGFR2/mbVEGFR2 mRNA = test: Real-time PCR of mouse retinal total RNA after intravitreous injection; conditions: 2 μl of 100 ng/μl intravitreously on day 0 and day 3, retina on day 4, vivo-morpholino
From the text: To administer morpholinos in vivo, morpholino conjugated with a dendrimer at the 3′ position (vivo-morpholino) was used for animal experiments. It should be understood that this technique is merely exemplary, and any other method of administration is considered to be within the present scope. […] Next, the protein level of mbVEGFR2 and sVEGFR2 in the retina and the ocular solution was examined by western blot. Consistent with real-time PCR results, moVEGFR2_MOe13 decreased mbVEGFR2 protein in the retina (FIG. 7C) and increased sVEGFR2 protein in the ocular solution (FIG. 7D).
To examine whether moVEGFR2_MOe13 could work in the mouse eye, on day 0 and day 3 2 μl of 100 ng/μl moVEGFR2_MOe13 or STD_MO or DPBS were injected intravitreously. On day 4, retinal total RNA was extracted with RNeasy mini kit with DNaseI treatment. sVEGFR2 and mbVEGFR2 mRNA expression were determined by the method described above. For western blot of mbVEGFR2, on day 4, retina was dissolved in RIPA buffer. For western blot of sVEGFR2, on 4 day, intraocular solution was obtained from 6 eyes by pipette. After centrifuge, supernatant was used for further experiment. For western blot, biotin-conjugated anti-VEGFR2 (BAF644, R&D Systems, Minneapolis, Minn.) was used at 1 μg/μl.

[1] = test system: corneal transplant rejection; test: Mouse corneal transplantation model
Method: It was also examined whether moVEGFR2_MOe13 can suppress murine corneal transplant rejection. After cornea transplantation, moVEGFR2_MOe13, STD_MO or DPBS were injected subconjuctivally. […] The arrow indicates censored data. […] Scale bar is 1 mm. FIGS. 12(c, d) Show the mean area of corneal neovascularization and lymphangiogenesis at 8 weeks respectively (n=11-17). Risk factors (p-value) were calculated by two-tail student's t-test (*: p<0.05, **p<0.01). Error bar is ±s.e.m.
Mouse corneal transplantation has been described previously. The donor cornea was marked with 2 mm trephine, the anterior chamber was penetrated using a knife (ClearCut™ Alcon, Inc) and the cornea was cut with Vannas scissors and then placed in Balanced Salt Solution (BSS® Alcon Laboratories, Inc, Fort Worth). The recipient mouse was anesthetized by intramuscular injection with ketamine (100 mg/kg body weight) and xylazine (20 mg/kg body weight). To dilate pupil and anesthetize the cornea, 1% tropicamide ophthalmic solution and 0.5% proparacaine ophthalmic solution were used. The recipient's right cornea was marked with 1.5 mm trephine and removed by the same method as the donor cornea. Viscoelastic material (Healon, 1% sodium hyaluronate, Abbott Medical Optics, IL) was used during recipient cornea dissection. […]

[2] = test system: suture-induced corneal neovascularization and lymphangiogenesis; test: Mouse corneal suture model (CD31 and LYVE-1 stained cornea flatmount); conditions: for suppression of suture-induced neovascularization: CD31; for suppression of lymphangiogenesis: LYVE-1
Method: In another aspect, a corneal suture model can be used to evaluate angiogenesis. For the one week subarm, each morpholino or DPBS was injected subconjunctivally one day prior to and four days after suturing; the corneas were harvested at seven days post suturing. For the two week subarm, each morpholino or DPBS was injected subconjunctivally one day prior and four, seven and ten days after suturing; the corneas were harvested at fourteen days. CD31 and LYVE-1 were used as markers of neovascularization and lymphangiogenesis, respectively. FIGS. 10 and 11 representative images of CD31 stained corneas at one week and LYVE-1 stained corneas at two weeks, respectively.
Under anesthesia, 15 μl of moVEGFR2_MOe13 (40 ng/μl), STD_MO (40 ng/μl) or DPBS was injected subconjunctivally into two different places one day prior to the placement of 2 symmetrical 11-0 nylon sutures, followed by re-injection at four days after suture placement. Eyes were harvested 7 days after suture placement. In a second group, 15 μl of moVEGFR2_MOe13 (40 ng/μl), STD_MO (40 ng/μl) or DPBS was injected subconjunctivally into two different places one day prior to the placement of 2 symmetrical 11-0 nylon sutures. Subconjunctival injections were repeated at four, seven and ten days after suture placement. Eyes were harvested 14 days after suture placement. The corneas were fixed in acetone at room temperature for 20 minutes. After 4 washes in PBST (0.1% Tween20/PBS), the corneas were incubated in 3% BSA/PBS at 4° C. for 3 days. To detect CD31 and LYVE1, corneas were incubated in 3% BSA/PBS with FITC-conjugated rat anti-CD31 antibody (553372, 1:500, BD Biosciences, San Jose, Calif.) or rabbit anti-LYVE-1 (ab14917, 1:200, Abcam, Cambridge, Mass.) overnight at 4° C. After 3 washes in PBST, the corneas were incubated in 3% BSA/PBS with Alexa Fluor® 546 conjugated goat anti-rabbit IgG (A11071, 1:2000, Invitrogen Corporation, Carlsbad, Calif.) for one hour at room temperature. After 4 washes in PBST, corneas were mounted on slide glass with Fluoro-gel (Electron Microscopy Sciences, Hatfield, Pa.). Fluorescence was observed by fluorescence microscope (Carl Zeiss MicroImaging, Inc., Thornwood, N.Y.). The data for each suture was calculated by ImageJ separately. Areas where sutures had fallen out were not included in the final calculations.

5′-cacccagggatgcctccatacCTAG-3′ (antisense CACCCAGGGATGCCTCCATACCTAG; all phosphorodiamidate morpholino (PMO), 3' {Dendrimer}) [moVEGFR2_MOe13, morpholino that targets the exon13-intron13 junction of the mouse VEGFR2 gene; in vivo conjugated with a dendrimer (vivo-morpholino)]
sVEGFR2/mbVEGFR2 mRNA ratio in retina (sVEGFR2/mbVEGFR2 mRNA): significantly increased | corneal neovascularization and lymphangiogenesis at 8 weeks ([1]; mean area, CD31 and LYVE-1 stained cornea at the endpoint (8 weeks), FIGS. 12C, D): decreased | graft survival ([1]; mouse cornea transplantation, 15 ul of 40 ng/μl subconjunctivally day of transplantation and weeks 1-4, compared with DPBS and STD_MO (log rank p=0.0186 and 0.0610)): increased | suppression of suture-induced neovascularization ([2]; 1 week, 15 μl of 40 ng/μl subconjunctivally one day prior to and four days after suturing, compared to DPBS, p<0.001): 52.2% | suppression of lymphangiogenesis ([2]; 2 weeks after suture placement, compared to DPBS, p<0.05): 27.8% | suppression of suture-induced neovascularization ([2]; 2 weeks, 15 μl of 40 ng/μl subconjunctivally one day prior and four, seven and ten days after suturing, compared to DPBS, p<0.05): 29.6% | suppression of lymphangiogenesis ([2]; one week after suture placement): did not suppress
